We go through three molecules from PMC2206373, “Identification of an altered peptide ligand based on the endogenously presented, rheumatoid arthritis-associated, human cartilage glycoprotein-39(263–275) epitope: an MHC anchor variant peptide for immune modulation” (Arthritis Research & Therapy, 2007).

Like-named read-outs stand apart in the source and are kept apart here. Non-standard residues stand in square brackets, D forms with d. Residues, ends and D or L forms follow the SMILES beside them. No end group written: not given here. Dip = N[C@H](C(=O)O)C(c1ccccc1)c1ccccc1

Test [1] deals with popliteal lymph node cells from F265(Dip)-immunized HLA-DR4trg mice. Kind of test: Antigen-specific proliferation of popliteal lymph node cells from F265(Dip)-immunized mice. In kind it is cell-based, mouse. Conditions: Figure 4b. As to the method:
(§1) Mice, obtained from L Fugger (Oxford, UK), were immunized in the hind footpads with 2 × 50 μg of purified recombinant HC gp-39, with 2 × 100 μg of the WT peptide or with 2 × 100 μg of the APL (F265(Dip); compound 28; Figure 1) mixed in IFA. Seven days later, popliteal lymph node cell suspensions (1 to 2 × 10^5 cells/well) were stimulated in vitro with HC gp-39 (50, 10 or 2 μg/ml), HC gp-39(263–275) or APL (10, 2 and 0.4 μg/ml). At 96 h, 50 μl of culture medium was harvested for analysis of antigen-specific cytokine production using Luminex technology (mouse cytokine 18 Plex Panel, catalogue no. 171-F11181, Biorad, Bio-Rad Laboratories, Hercules, CA, USA). In addition, cultures were labelled with tritiated thymidine (for 18 h) and antigen-specific proliferation was determined. We state that all animal experimentation received ethics approval and animals were treated according to the recognized guidelines.

Test [2] has the same test system. The test is described as follows: Antigen-specific cytokine production of popliteal lymph node cells from F265(Dip)-immunized mice. In kind it is cell-based, mouse. Conditions: Figure 4b. The protocol: as §1
The target of the next test is HLA-DR4(B1*0401) (Homo sapiens, UniProt P01903+P01911, A100K/A169T/F76Y/I96L/K127E/L162R/M171V/N62H/P40V/Q125Y/R42H/S133A/S149N/S66Y/V115G/V209L/W38E). Kind of test: HLA-DR4 competition peptide binding assay. Conditions: competition with biotinylated HA307-319 (Y309F) 50 nM, purified HLA-DR4 30 nM, pH 5, 48 h, room temperature. The protocol: HLA-DR bound marker peptide was separated from free marker peptide and the amount of bound marker peptide was detected and quantified by enhanced chemoluminescense. Inhibition curves were generated and the IC50 was determined. The concentration of competitor peptide inducing 50% inhibition of marker peptide binding was determined, and expressed as the 50% inhibitory concentration (IC50 in μM).

In another test the test system is T cell hybridoma 5G11. The test is described as follows: T hybridoma 5G11 IL-2 response. In kind it is cell-based, mouse. As to the method:
(§2) The T cell hybridomas, provided by G Sonderstrup (Stanford, CA, USA), were generated as described. In brief, human CD4, HLA-DRA*101/HLA-DRB*0401 triple transgenic (HLA-DR4trg) mice (devoid of I-Aβ) were immunized in the footpad with 50 μg of purified HC gp-39 mixed in incomplete Freund's adjuvant (IFA). Draining lymph nodes were isolated and T-cell hybridomas were generated by polyethylene glycol fusion of primed and in vitro antigen-restimulated lymph node cells with the AKR BW5147 fusion partner. Following fusion, growth-positive hybridoma wells were screened for reactivity to HC gp-39 and a set of 55 peptides (16 amino acids in length) covering the entire HC gp-39 sequence. HLA-DR4(B1*0401)-restricted hybridomas responsive to both the HC gp-39 protein and the immunodominant epitope 263–275 of HC gp-39 (for example, 5G11, 8B12, 14G11 and 20H5) were cloned, subcloned, characterised and selected for further study.
(§3) HC gp-39-specific IL-2 production by T hybridomas was measured in wells of round-bottomed microtiter plates. Hybridoma cells (2 to 5 × 10^4) and irradiated APC (0.5 to 1 × 10^5; 12,000 to 16,000 RAD) from the B lymphoblastoid cell line (BLCL) carrying the DRB1*0401 specificity were incubated in 150 μl volumes. Antigen was added in 50 μl volumes to duplicate wells. After 48 h, 100 μl of the culture supernatant was assayed for IL-2 production using a sandwich ELISA with Pharmingen antibodies specific for mouse IL-2. The antigen sensitivity of the hybridomas to both peptide and protein was determined (Figure 2). […] In later assays, an excess of peptide or APL (10 μg/ml), inducing maximal responses in all hybridomas, was tested.

Another test has as its system T cell hybridoma 8B12. Kind of test: T hybridoma 8B12 IL-2 response. In kind it is cell-based, mouse. As to the method: as §2, §3
For another test, the system named is T cell hybridoma 14G11. The test is described as follows: T hybridoma 14G11 IL-2 response. In kind it is cell-based, mouse. As to the method:
as §2, §3

A further test has as its system T cell hybridoma 20H5. Kind of test: T hybridoma 20H5 IL-2 response. The following applies: Table 2. The test is classed as cell-based, mouse. The protocol:
as §2, §3

Test [3] concerns popliteal lymph node cells from HC gp-39(263–275)-immunized huCD4, HLA-DR4 transgenic mice. The test is described as follows: Antigen-specific proliferation of popliteal lymph node cells from WT peptide-immunized mice. The test is classed as cell-based, mouse. Conditions: for Prol (SI): 96 h, tritiated thymidine, background 407 cpm, SI > 2 positive, SD not above 30%. The protocol:
as §1

Test [4] shares this test system. The test is described as follows: Antigen-specific cytokine production of popliteal lymph node cells from WT peptide-immunized mice. In kind it is cell-based, mouse. The following applies: for IFNγ concentration / MIP1α concentration / RANTES concentration: 96 h supernatant, Luminex. As to the method:
as §1

[5] abbreviates: Figure 1 experiment, compared with WT peptide.
Setting [6] is: Figure 4a, WT peptide-immunized HLA-DR4trg mice.

As to “human cartilage glycoprotein-39 [HC gp-39 protein]”, the “In vitro recall proliferative response in words” value in [1] is given as “somewhat less”. Besides, in test [2], the “In vitro recall IFNγ production in words” value was “failed to induce significant levels”, the “In vitro recall Mip1α production in words” value is on record as “failed to induce significant levels” and the “In vitro recall RANTES production in words” value is “failed to induce significant levels”.
What is called IC50 is the midpoint of a concentration-inhibition curve. As to RSATLASSETGVG [Compound 12], the IC50 on HLA-DR4(B1*0401) (Table 2, read-out: HLA-DR binding IC50) was more than 35000 nM. Also, the “Recognition by hybridoma 5G11 in words” value in the test with T cell hybridoma 5G11 (Table 2) is listed as “not recognized”. Further, the “Hybridoma response (SI) 5G11” value with T cell hybridoma 5G11 (Table 2, IL-2 by ELISA after 48 h, peptide 10 μg/ml, DRB1*0401 BLCL as APC, SI > 2 positive, background 17,238 counts, SD not above 15%) is given as 2 SI. The “Reactivity of hybridoma 8B12 in words” value with T cell hybridoma 8B12 (Table 2) was “affected to a lesser extent”. The “Hybridoma response (SI) 8B12” value in the test on T cell hybridoma 8B12 (Table 2, IL-2 by ELISA after 48 h, peptide 10 μg/ml, DRB1*0401 BLCL as APC, SI > 2 positive, background 8,773 counts, SD not above 15%) is recorded as 6 SI. The “Recognition by hybridoma 14G11 in words” value in the test on T cell hybridoma 14G11 (Table 2) is “not recognized”. The “Hybridoma response (SI) 14G11” value with T cell hybridoma 14G11 (Table 2, IL-2 by ELISA after 48 h, peptide 10 μg/ml, DRB1*0401 BLCL as APC, SI > 2 positive, background 10,131 counts, SD not above 15%) is on record as 2 SI. Besides, the “Reactivity of hybridoma 20H5 in words” value in the test on T cell hybridoma 20H5 is “only slightly affected”. Also, in the test with T cell hybridoma 20H5 (IL-2 by ELISA after 48 h, peptide 10 μg/ml, DRB1*0401 BLCL as APC, SI > 2 positive, background 290,666 counts, SD not above 15%), the “Hybridoma response (SI) 20H5” value is given as 4 SI. The “Polyclonal response (proliferation and cytokine production) in words” value in test [3] (Table 3, lymph node cells of WT peptide-immunized HLA-DR4trg mice) is recorded as “did not elicit a significant response”. The “Prol (SI)” value in [3] (peptide 2 μg/ml) was found to be 1 SI. In addition, the “Prol (SI)” value in test [3] (peptide 10 μg/ml) worked out at 3 SI. In [4] (peptide 2 μg/ml), this molecule showed an IFNγ concentration of less than 5 pg/mL, an MIP1α concentration of less than 24 pg/mL and an RANTES concentration of less than 6 pg/mL. In [4] (peptide 10 μg/ml), this molecule registered an IFNγ concentration of less than 5 pg/mL, an MIP1α concentration of 27 pg/mL and an RANTES concentration of 9 pg/mL.
Turning to `CC(C)C[C@H](NC(=O)[C@@H](NC(=O)[C@@H](NC(=O)[C@H](CO)NC(=O)[C@@H](N)CCCNC(=N)N)C(c1ccccc1)c1ccccc1)[C@@H](C)O)C(=O)N[C@@H](C)C(=O)N[C@@H](CO)C(=O)N[C@@H](CO)C(=O)N[C@@H](CCC(=O)O)C(=O)N[C@H](C(=O)NCC(=O)N[C@H](C(=O)NCC(=O)O)C(C)C)[C@@H](C)O` [Compound 28] (H-RS[Dip]TLASSETGVG-OH), the IC50 at HLA-DR4(B1*0401) (Figure 1, read-out: DRB1*0401 binding IC50) was determined as 10 nM. The “T hybridoma (SI) 5G11” value in the test on T cell hybridoma 5G11 (Figure 1, IL-2 production, DRB1*0401 BLCL as APC, duplicate or triplicate, background 29,203 counts, ±30% of WT response = super/partial agonist) is recorded as 29 SI. Further, the “T hybridoma (SI) 8B12” value in the test on T cell hybridoma 8B12 (Figure 1, IL-2 production, DRB1*0401 BLCL as APC, duplicate or triplicate, background 16,288 counts, ±30% of WT response = super/partial agonist) amounted to 5 SI. The “Hybridoma 8B12 activation (IL-2 production) in words” value in the test on T cell hybridoma 8B12 (setting [5]) is given as “partial activation”. For the same molecule, the “T hybridoma (SI) 14G11” value with T cell hybridoma 14G11 (Figure 1, IL-2 production, DRB1*0401 BLCL as APC, duplicate or triplicate, background 7,152 counts, ±30% of WT response = super/partial agonist) is on record as 6 SI. Besides, the “Hybridoma 14G11 activation (IL-2 production) in words” value in the test on T cell hybridoma 14G11 (setting [5]) is listed as “partial activation”. For the same molecule, the “Ex vivo recall proliferative response in words” value in [3] (setting [6]) was “comparable proliferative responses”. Moreover, in [4] (setting [6]), the “Ex vivo recall IFNγ production in words” value is given as “lesser”, the “Ex vivo recall Mip1α production in words” value is on record as “unaltered” and the “Ex vivo recall RANTES production in words” value was “unaltered”. Also, in test [1], the “In vitro recall proliferative response in words” value was “good proliferative activity”. Also, in [2], the “In vitro recall IFNγ production in words” value was “barely detectable”, the “In vitro recall Mip1α production in words” value was “barely detectable” and the “In vitro recall RANTES production in words” value is “barely detectable”.
